Measurements taken from patent US12378193B2, “Anti-arrhythmicity agents” (The Regents of the University of California, priority 2014, dated 2025).

What was measured:
[1] = tested on: zebrafish tremblor (tre) embryos; assay: Restoration of coordinated cardiac contractions in tre embryos; type: in vivo; details: tremblor embryos
Description: (§1) VDAC2 mRNA and morpholino antisense oligos (5′-[…]-3′) (Genetools) (SEQ ID NO: 9) were injected into one-cell stage embryos collected from crosses of tre^tc318 heterozygotes. Cardiac performance was analyzed by visual inspection on 1 dpf. The tre mutant embryos were identified either by observing the fibrillation phenotype at 2-3 dpf or by genotyping as previously described (Langenbacher et al., 2005).
(§2) Chemicals from a synthetic library (Castellano et al., 2007, J Am Chem Soc 129, 5843-5845; Choi et al., 2011, Development 138, 1173-1181; Cruz et al., 2011, Proc Natl Acad Sci USA 108, 6769-6774) and from Biomol International LP were screened for their ability to partially or completely restore persistent heartbeat in tre embryos. 12 embryos collected from crosses of tre^tc318 heterozygotes were raised in the presence of individual compounds at a concentration of 10 μM from 4 hpf (Choi et al., 2011). Cardiac function was analyzed by visual inspection at 1 and 2 dpf. The hearts of tre^tc318 embryos manifest a chaotic movement resembling cardiac fibrillation with intermittent contractions in rare occasion (Ebert et al., 2005; Langenbacher et al., 2005). Compounds that elicit persistent coordinated cardiac contractions were validated on large number of tre mutant embryos and NCX1h morphants (>500 embryos).

NCX1hMO injected embryos = assay: Restoration of coordinated cardiac contractions in NCX1h morpholino embryos; type: in vivo, zebrafish; details: linker-attached compounds
Description: as §1, §2

VDAC2 = assay: Affinity bead pull down from zebrafish embryo lysate with mass spectrometry; type: binding; details: zebrafish embryonic lysate, affinity agarose beads
Description: For pull down assays mono-N-Boc protected 2,2′-(ethylenedioxy)bis(ethylamine) was attached to the carboxylic ester of efsevin and its derivatives through the amide bond. After removal of the Boc group using TFA, the primary amine was coupled to the carboxylic acid of Affi-Gel 10 Gel (Biorad). Two-day-old zebrafish embryos were deyolked by centrifugation before being lysed with Rubinfeld's lysis buffer (Rubinfeld et al., 1993, Science 262, 1731-1734). The lysate was precleaned by incubation with Affi-Gel 10 Gel to eliminate non-specific binding. Precleaned lysate was incubated with affinity beads overnight. Proteins were eluted from the affinity beads and separated on SDS-PAGE. Protein bands of interest were excised. Gel plugs were dehydrated in acetonitrile (ACN) and dried completely in a Speedvac. Samples were reduced and alkylated with 10 mM dithiotreitol and 10 mM TCEP solution in 50 mM NH4HCO3 (30 min at 56° C.) and 100 mM iodoacetamide (45 min in dark), respectively. Gel plugs were washed with 50 mM NH4HCO3, dehydrated with ACN, and dried down in a Speedvac. Gel pieces were then swollen in digestion buffer containing 50 mM NH4HCO3, and 20.0 ng/μL of chymotrypsin (25° C., overnight). Peptides were extracted with 0.1% TFA in 50% ACN solution, dried down and resuspended in LC buffer A (0.1% formic acid, 2% ACN).
Extracted peptides were analyzed by nano-flow LC/MS/MS on a Thermo Orbitrap with dedicated Eksigent nanopump using a reversed phase column (New Objective). The flow rate was 200 nL/min for separation: mobile phase A contained 0.1% formic acid, 2% ACN in water, and mobile phase B contained 0.1% formic acid, 20% water in ACN. The gradient used for analyses was linear from 5% B to 50% B over 60 min, then to 95% B over 15 min, and finally keeping constant 95% B for 10 min. Spectra were acquired in data-dependent mode with dynamic exclusion where the instrument selects the top six most abundant ions in the parent spectra for fragmentation. […]

[2] = Defibrillator activity of efsevin enantiomers

| Compound | restoration of rhythmic contractions in tremblor embryos [1] | restoration of rhythmic contractions in NCX1hMO injected embryos (NCX1hMO injected embryos) | pull down of the 32 kD band (VDAC2) (VDAC2) | defibrillator activity of efsevin: active enantiomer [2] |
| --- | --- | --- | --- | --- |
| CCOC(=O)C1=CCN(S(C)(=O)=O)C1c1ccccc1 (racemic) [OK-C19] | failed to rescue the tremblor phenotype | unable to induce rhythmic contraction | not detected | – |
| CCOC(=O)C1=CCN(S(=O)(=O)c2cccc(F)c2)C1c1ccc(F)cc1 (racemic) [OK-C125] | restored rhythmic contractions in the majority of tremblor embryos | retained their ability to restore rhythmic contractions | pulled down | – |
| CCOC(=O)C1=CCN(S(=O)(=O)c2ccc(C)cc2)[C@@H]1c1ccccc1 [(R)-Efsevin] | – | – | – | Active Antipode |
